From patent US5281602A, “Angiotensin II receptor blocking 2,3,6-substituted 5,6,7,8-tetrahydro-pyrido[4,3-D]pyrimidin-4(3H)-ones” (American Cyanamid Company, priority 1993, dated 1994)
Several values for one entry are separate records, joined by “and”; a condition that tells them apart may be missing. Equal values may be shown once.

What was measured:
Angiotension II Receptor = assay: Receptor Binding Assay: competition with [^125 I] (Sar^1,Ile^8) AngII on microsomal membranes; conditions: pH 7.4, 60 min, room temperature
Description: Binding of [^125 I] (Sar^1,Ile^8) AngII
The binding of [^125 I] (Sar^1,Ile^8) AngII to microsomal membranes is initiated by the addition of reconstituted membranes (1:10 vols.) in freshly made 50.0 mMTris.HCl buffer, pH 7.4 containing 0.25% heat inactivated bovine serum albumin (BSA):80 ul membrane protein (10 to 20 ug/assay) to wells already containing 100 ul of incubation buffer (as described above) and 20 ul [^125 I] (Sar^1,Ile^8) AngII (Specific Activity, 2200 Ci/mmole). Non-specific binding is measured in the presence of 1.0 uM unlabeled (Sar^1,Ile^8) AngII, added in 20 ul volume. Specific binding for [^125 I] (Sar^1,Ile^8) AngII is greater than 90%. In competition studies, experimental compounds are diluted in dimethylsulfoxide (DMSO) and added in 20 ul to wells before the introduction of tissue membranes. This concentration of DMSO is found to have no negative effects on the binding of [^125 I] (Sar^1,Ile^8) AngII to the membranes. Assays are performed in triplicate. […] Presoaking the filter sheet in 0.1% polyethylenemine in normal saline (PEI/Saline) greatly reduces the radioactivity retained by the filter blanks. […] The filters are removed from the filter grid and counted in a Parkard® Cobra Gamma Counter for 1 min. […] The binding data are analyzed by the non-linear interactive "LUNDON-1" program (LUNDON SOFTWARE Inc., Cleveland, Ohio U.S.A.). […]

[1] = system: ANGIOTENSIN II (A11) VASOPRESSOR RESPONSE; assay: AII Challenge: blockade of angiotensin II vasopressor response in conscious SHR; assay type: in vivo, rat (Conscious Male Okamoto-Aoki SHR); conditions: for Change (single reading, systolic blood pressure) / Response After A11 (systolic blood pressure) / Control Before A11 (systolic blood pressure): 15 mg/kg
Excerpt: By administering a compound of this invention to a rat, and then challenging with angiotensin II, a blockage of the vasopressor response is realized.
Conscious Male Okamoto-Aoki SHR, 16-20 weeks old, weighing approximately 330 g are purchased from Charles River Labs (Wilmington, Mass.). Conscious rats are restrained in a supine position with elastic tape. The area at the base of the tail is locally anesthetized by subcutaneous infiltration with 2% procaine. The ventral caudal artery and vein are isolated, and a cannula made of polyethylene (PE) 10-20 tubing (fused together by heat) is passed into the lower abdominal aorta and vena cava, respectively. The cannula is secured, heparinized (1,000 I.U./ml), sealed and the wound is closed. The animals are placed in plastic restraining cages in an upright position. The cannula is attached to a Statham P23Db pressure transducer, and pulsatile blood pressure is recorded to 10-15 minutes with a Gould Brush recorder. (Chan et al., (Drug Development Res., 18:75-94, 1989).
Angiotensin II (human sequence, Sigma Chem. Co., St. Louis, Mo.) of 0.05 and 0.1 ug/kg i.v. is injected into all rats (predosing response). Then a test compound, vehicle or a known angiotensin II antagonist is administered i.v., i.p. or orally to each set of rats. […] The vasopressor response of angiotensin II is measured for the increase in systolic blood pressure in mmHg. The percentage of antagonism or blockade of the vasopressor response of angiotensin II by a compound is calculated using the vasopressor response (increase in systolic blood pressure) of angiotensin II of each rat predosing the compound as 100%. A compound is considered active if at 30 mg/kg i.v. it antagonized at least 50% of the response.

[2] = 15 mg/kg IV (single), AII 0.05 mcg/kg IV, 120 min post dose
[3] = 15 mg/kg IV (single), AII 0.05 mcg/kg IV, 180 min post dose
[4] = 15 mg/kg IV (single), AII 0.1 mcg/kg IV, 120 min post dose
[5] = 15 mg/kg IV (single), AII 0.1 mcg/kg IV, 180 min post dose
[6] = 15 mg/kg IV, AII 0.05 mcg/kg IV, 30 min post dose
[7] = 15 mg/kg IV, AII 0.05 mcg/kg IV, 60 min post dose
[8] = 15 mg/kg IV, AII 0.05 mcg/kg IV, 90 min post dose
[9] = 15 mg/kg IV, AII 0.1 mcg/kg IV, 30 min post dose
[10] = 15 mg/kg IV, AII 0.1 mcg/kg IV, 60 min post dose
[11] = 15 mg/kg IV, AII 0.1 mcg/kg IV, 90 min post dose

IC50 (Angiotension II Receptor): 600 nM
SMILES: CCCCc1nc2c(c(=O)n1Cc1ccc(-c3ccccc3-c3nnn[nH]3)cc1)CN(C(=O)C(C)(C)O)CC2 [Example 16]
Average % Inhibition (angiotensin blockage) of AII vasopressor response [1, 2]: 39%
Average Change (systolic blood pressure response to AII) [1, 2]: 27.5 mmHg
Change (single reading, systolic blood pressure) [1, 2]: 35 mmHg and 20 mmHg
Average % Inhibition (angiotensin blockage) of AII vasopressor response [1, 3]: 6%
Average Change (systolic blood pressure response to AII) [1, 3]: 42.5 mmHg
Change (single reading, systolic blood pressure) [1, 3]: 55 mmHg and 30 mmHg
Average % Inhibition (angiotensin blockage) of AII vasopressor response [1, 4]: 35%
Average Change (systolic blood pressure response to AII) [1, 4]: 32.5 mmHg
Change (single reading, systolic blood pressure) [1, 4]: 40 mmHg and 25 mmHg
Average % Inhibition (angiotensin blockage) of AII vasopressor response [1, 5]: 5%
Average Change (systolic blood pressure response to AII) [1, 5]: 47.5 mmHg
Change (single reading, systolic blood pressure) [1, 5]: 50 mmHg and 45 mmHg
Response After A11 (systolic blood pressure) ([1]; 15 mg/kg IV (single), after AII 0.05 mcg/kg IV, 120 min post dose): 245 mmHg and 195 mmHg
Response After A11 (systolic blood pressure) ([1]; 15 mg/kg IV (single), after AII 0.05 mcg/kg IV, 180 min post dose): 230 mmHg and 195 mmHg
Response After A11 (systolic blood pressure) ([1]; 15 mg/kg IV (single), after AII 0.1 mcg/kg IV, 120 min post dose): 240 mmHg and 200 mmHg
Response After A11 (systolic blood pressure) ([1]; 15 mg/kg IV (single), after AII 0.1 mcg/kg IV, 180 min post dose): 260 mmHg and 210 mmHg
Control Before A11 (systolic blood pressure) ([1]; 15 mg/kg IV (single), before AII 0.05 mcg/kg IV, 120 min post dose): 210 mmHg and 175 mmHg
Control Before A11 (systolic blood pressure) ([1]; 15 mg/kg IV (single), before AII 0.05 mcg/kg IV, 180 min post dose): 175 mmHg and 165 mmHg
Control Before A11 (systolic blood pressure) ([1]; 15 mg/kg IV (single), before AII 0.1 mcg/kg IV, 120 min post dose): 200 mmHg and 175 mmHg
Control Before A11 (systolic blood pressure) ([1]; 15 mg/kg IV (single), before AII 0.1 mcg/kg IV, 180 min post dose): 210 mmHg and 165 mmHg
Average % Inhibition (angiotensin blockage) of AII vasopressor response [1, 6]: 72%
Average Change (systolic blood pressure response to AII) [1, 6]: 12.5 mmHg
Change (single reading, systolic blood pressure) [1, 6]: 15 mmHg and 10 mmHg
Average % Inhibition (angiotensin blockage) of AII vasopressor response [1, 7]: 67%
Average Change (systolic blood pressure response to AII) [1, 7]: 15 mmHg
Average % Inhibition (angiotensin blockage) of AII vasopressor response [1, 8]: 37%
Average Change (systolic blood pressure response to AII) [1, 8]: 28.5 mmHg
Average % Inhibition (angiotensin blockage) of AII vasopressor response [1, 9]: 85%
Average Change (systolic blood pressure response to AII) [1, 9]: 7.5 mmHg
Change (single reading, systolic blood pressure) [1, 9]: 10 mmHg and 5 mmHg
Average % Inhibition (angiotensin blockage) of AII vasopressor response [1, 10]: 57%
Average Change (systolic blood pressure response to AII) [1, 10]: 21.5 mmHg
Average % Inhibition (angiotensin blockage) of AII vasopressor response [1, 11]: 33%
Average Change (systolic blood pressure response to AII) [1, 11]: 33.5 mmHg
Change (single reading, systolic blood pressure) [1, 11]: 42 mmHg and 25 mmHg
Response After A11 (systolic blood pressure) ([1]; 15 mg/kg IV, after AII 0.05 mcg/kg IV, 30 min post dose): 210 mmHg and 185 mmHg
Response After A11 (systolic blood pressure) ([1]; 15 mg/kg IV, after AII 0.05 mcg/kg IV, 60 min post dose): 215 mmHg and 190 mmHg
Response After A11 (systolic blood pressure) ([1]; 15 mg/kg IV, after AII 0.05 mcg/kg IV, 90 min post dose): 225 mmHg and 190 mmHg
Response After A11 (systolic blood pressure) ([1]; 15 mg/kg IV, after AII 0.1 mcg/kg IV, 30 min post dose): 205 mmHg and 180 mmHg
Response After A11 (systolic blood pressure) ([1]; 15 mg/kg IV, after AII 0.1 mcg/kg IV, 60 min post dose): 220 mmHg and 188 mmHg
Response After A11 (systolic blood pressure) ([1]; 15 mg/kg IV, after AII 0.1 mcg/kg IV, 90 min post dose): 230 mmHg and 195 mmHg
Control Before A11 (systolic blood pressure) ([1]; 15 mg/kg IV, before AII 0.05 mcg/kg IV, 30 min post dose): 195 mmHg and 175 mmHg
Control Before A11 (systolic blood pressure) ([1]; 15 mg/kg IV, before AII 0.05 mcg/kg IV, 60 min post dose): 190 mmHg and 185 mmHg
Control Before A11 (systolic blood pressure) ([1]; 15 mg/kg IV, before AII 0.05 mcg/kg IV, 90 min post dose): 183 mmHg and 175 mmHg
Control Before A11 (systolic blood pressure) ([1]; 15 mg/kg IV, before AII 0.1 mcg/kg IV, 30 min post dose): 195 mmHg and 175 mmHg
Control Before A11 (systolic blood pressure) ([1]; 15 mg/kg IV, before AII 0.1 mcg/kg IV, 60 min post dose): 190 mmHg and 175 mmHg
Control Before A11 (systolic blood pressure) ([1]; 15 mg/kg IV, before AII 0.1 mcg/kg IV, 90 min post dose): 188 mmHg and 170 mmHg
